Measurements as given in PMC12016531 (Applied and Environmental Microbiology, 2025).

Legend:
B. subtilis CMCC63501 = test: Stability: residual antimicrobial activity by agar diffusion; type: physicochemical, Bacillus subtilis; conditions: up to 12 h
Experimental: After treatment for 2, 4, 6, 8, 10, and 12 h, the residual antimicrobial activity of the samples was measured using the agar diffusion method, with B. subtilis CMCC63501 as the indicator strain.

[1] = system: L. monocytogenes ATCC 19115; test: MIC/MBC microdilution; type: cell-based, Listeria monocytogenes; conditions: lowest concentration that killed 99.9%; TSB-YE; highest concentration 100 µM
[2] = system: Escherichia coli ATCC 25922; test: MIC/MBC microdilution; type: cell-based; conditions: NB, highest concentration 100 µM
Experimental: (§1) The microdilution method ([25]) was used to measure the MIC of mycoidesin against indicator strains (Table S2). HPLC-purified mycoidesin was weighed and dissolved in a liquid culture medium to prepare various concentrations of mycoidesin (200.00, 100.00, 50.00, 25.00, 12.50, 6.25, 3.13, 1.56, 0.78, 0.39, 0.20, and 0.10 µM). A volume of 50 µL of different concentrations of mycoidesin solutions and 50 µL culture (1 × 10^6 CFU/mL) of the indicator strain were mixed in 96-well plates. The final concentrations of mycoidesin were 100.00, 50.00, 25.00, 12.50, 6.25, 3.13, 1.56, 0.78, 0.39, 0.20, 0.10, and 0.05 µM. […] The minimum bactericidal concentration (MBC) was the lowest concentration that killed 99.9% of the bacterial population. Nisin A was purified (Cayman Chemical, USA) as previously described ([26]) and was used to measure and compare the MIC values of L. monocytogenes strains and mycoidesin.

[3] = system: Klebsiella pneumoniae CMCC 46117; test: MIC/MBC microdilution; type: cell-based; conditions: NB, highest concentration 100 µM
Experimental: as §1

[4] = system: Salmonella enterica serotype Paratyphi CMCC 50093; test: MIC/MBC microdilution; type: cell-based; conditions: NB, highest concentration 100 µM
Experimental: as §1

[5] = system: Acinetobacter baumannii ATCC 19606; test: MIC/MBC microdilution; type: cell-based; conditions: NB, highest concentration 100 µM
Experimental: as §1

[6] = system: L. monocytogenes ATCC 19118; test: MIC/MBC microdilution; type: cell-based, Listeria monocytogenes; conditions: lowest concentration that killed 99.9%; TSB-YE; highest concentration 100 µM
[7] = system: L. monocytogenes ATCC 7644; test: MIC/MBC microdilution; type: cell-based, Listeria monocytogenes; conditions: lowest concentration that killed 99.9%; TSB-YE; highest concentration 100 µM
[8] = system: L. monocytogenes ATCC 51780; test: MIC/MBC microdilution; type: cell-based, Listeria monocytogenes; conditions: lowest concentration that killed 99.9%; TSB-YE; highest concentration 100 µM
[9] = lowest concentration that killed 99.9%

`C/C=C1\NC(=O)CNC(=O)[C@H](CCSC)NC(=O)[C@@H]2CS[C@@H](C)[C@@H](NC(=O)[C@@H]3CSC[C@@H](NC(=O)[C@H](CC(C)C)NC(=O)[C@H](CC(N)=O)NC(=O)[C@@H](N)Cc4ccc(O)cc4)C(=O)N[C@@H](C)C(=O)N[C@@H](C)C(=O)N[C@@H]([C@@H](C)CC)C(=O)N[C@@H](C)C(=O)N[C@@H](CC(=O)O)C(=O)N[C@@H](C)C(=O)N[C@@H](C)C(=O)NCC(=O)N[C@@H](CC(C)C)C(=O)N[C@@H](CCCCN)C(=O)NCC(=O)N[C@@H](CC(N)=O)C(=O)N[C@@H](Cc4ccc(O)cc4)C(=O)NCC(=O)N[C@@H](CCCCN)C(=O)N[C@@H](Cc4ccccc4)C(=O)N3)C(=O)N[C@@H](Cc3ccc(O)cc3)C(=O)N[C@H](CSC[C@@H](C(=O)NCC(=O)N[C@@H](CO)C(=O)O)NC(=O)[C@H](CO)NC(=O)[C@H](C(C)C)NC1=O)C(=O)N[C@@H](C)C(=O)N[C@@H](CCC(=O)O)C(=O)N2` [mycoidesin] was tested. Which residual antimicrobial activity (B. subtilis CMCC63501; pH 7.0, 37°C, mycoidesin 6.25 µM, nisin A 12.5 µM (4× MIC)) did it give?
The residual antimicrobial activity was “remained unchanged”.

What about the residual antimicrobial activity (B. subtilis CMCC63501; pH 7.0, 60°C, mycoidesin 6.25 µM (4× MIC)) of the same compound?
The residual antimicrobial activity was “decreased with increasing incubation time”.

And the residual antimicrobial activity (B. subtilis CMCC63501; pH 8.0, 37°C, mycoidesin 6.25 µM, nisin A 12.5 µM (4× MIC))?
The residual antimicrobial activity was “decreased”.

And the residual antimicrobial activity (B. subtilis CMCC63501; pH 8.0, 60°C, mycoidesin 6.25 µM (4× MIC))?
Its residual antimicrobial activity is “decreased with increasing incubation time”.

What about the MBC [1] of the same compound?
Its MBC is “NA (No activity was detected even at the highest concentration of mycoidesin (100 µM))”.

And the MBC [2, 9]?
Its MBC is “NA (No activity was detected even at the highest concentration of mycoidesin (100 µM))”.

What about the MIC ([2]; microdilution, 30°C, 16 h) of the same compound?
Its MIC is “NA (No activity was detected even at the highest concentration of mycoidesin (100 µM))”.

And the MBC [3, 9]?
Its MBC is “NA (No activity was detected even at the highest concentration of mycoidesin (100 µM))”.

And the MIC ([3]; microdilution, 30°C, 16 h)?
Its MIC is “NA (No activity was detected even at the highest concentration of mycoidesin (100 µM))”.

And the MBC [4, 9]?
Its MBC is “NA (No activity was detected even at the highest concentration of mycoidesin (100 µM))”.

What about the MIC ([4]; microdilution, 30°C, 16 h) of the same compound?
The MIC was “NA (No activity was detected even at the highest concentration of mycoidesin (100 µM))”.

What about the MBC [5, 9] of the same compound?
Its MBC is “NA (No activity was detected even at the highest concentration of mycoidesin (100 µM))”.

And the MIC ([5]; microdilution, 30°C, 16 h)?
The MIC was “NA (No activity was detected even at the highest concentration of mycoidesin (100 µM))”.

And the MBC [6]?
The MBC was “NA (No activity was detected even at the highest concentration of mycoidesin (100 µM))”.

What about the MBC [7] of the same compound?
The MBC was “NA (No activity was detected even at the highest concentration of mycoidesin (100 µM))”.

And the MBC [8]?
Its MBC is “NA (No activity was detected even at the highest concentration of mycoidesin (100 µM))”.
